Test results as given in article PMC7949102 (The Journal of Biological Chemistry, 2021).

Key:
[1] = target: T1, DdGlud2 (Dictyostelium discoideum, UniProt Q54VI3); test: NADH formation at […] nm; assay type: biochemical; details: activator; 1 mM GTP, 10 mM Glu, 1 mM NAD+; pH 8.0, 23 °C
T1 construct: gene glud2; full-length, His6-SUMO tag cleaved by ULP, E. coli BL21 Rosetta; elutes at 212 kDa
T1 sequence (Q54VI3 1-1042): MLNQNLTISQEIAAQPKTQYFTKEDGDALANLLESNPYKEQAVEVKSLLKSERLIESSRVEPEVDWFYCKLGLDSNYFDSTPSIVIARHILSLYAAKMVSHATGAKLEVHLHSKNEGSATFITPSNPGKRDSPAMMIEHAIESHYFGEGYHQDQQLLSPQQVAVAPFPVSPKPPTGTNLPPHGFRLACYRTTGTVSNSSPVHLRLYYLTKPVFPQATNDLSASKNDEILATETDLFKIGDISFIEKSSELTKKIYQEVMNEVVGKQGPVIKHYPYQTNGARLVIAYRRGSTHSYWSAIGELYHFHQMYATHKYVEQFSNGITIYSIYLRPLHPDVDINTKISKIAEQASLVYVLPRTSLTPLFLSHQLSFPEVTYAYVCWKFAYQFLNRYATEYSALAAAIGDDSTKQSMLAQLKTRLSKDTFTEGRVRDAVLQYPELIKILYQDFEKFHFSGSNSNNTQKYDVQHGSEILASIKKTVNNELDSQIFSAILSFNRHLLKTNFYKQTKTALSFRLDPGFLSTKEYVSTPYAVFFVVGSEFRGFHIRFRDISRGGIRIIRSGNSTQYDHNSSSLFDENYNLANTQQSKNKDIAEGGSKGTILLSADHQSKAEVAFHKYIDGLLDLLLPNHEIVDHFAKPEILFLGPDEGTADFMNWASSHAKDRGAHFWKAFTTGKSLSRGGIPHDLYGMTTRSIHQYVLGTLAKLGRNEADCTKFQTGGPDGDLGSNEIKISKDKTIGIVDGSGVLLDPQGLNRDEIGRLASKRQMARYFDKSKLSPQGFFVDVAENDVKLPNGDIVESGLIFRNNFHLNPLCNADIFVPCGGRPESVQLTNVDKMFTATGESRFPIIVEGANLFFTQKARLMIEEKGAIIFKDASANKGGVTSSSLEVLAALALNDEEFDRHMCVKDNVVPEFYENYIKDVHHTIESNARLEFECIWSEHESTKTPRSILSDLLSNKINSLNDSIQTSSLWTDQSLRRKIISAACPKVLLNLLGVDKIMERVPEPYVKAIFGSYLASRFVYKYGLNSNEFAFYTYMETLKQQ

[2] = target: T2, Llo2453 (Legionella longbeachae, UniProt D3HKA9); assay type: biochemical
T2 construct: gene LLO_2453

[3] = target: T3, Ltuc1293 (Legionella tucsonensis, UniProt A0A0W0ZWS2); assay type: biochemical
T3 construct: gene Ltuc_1293

[4] = target: Lart1 (Legionella pneumophila, UniProt Q5ZZ30); details: 250 μM etheno-NAD+, 0-8 mM nicotinamide, 0.5 mg/ml DdGlud2; pH 7.5, 100 mM NaCl, room temperature
[5] = substrate: N[C@@H](CCC(=O)O)C(=O)O; test: purified protein; details: 5 mM NAD+, 100 mM Tris-HCl pH 8.0, 0.1 mg/ml BSA, 1 mM DTT, 23 °C, oxidative deamination
[6] = target: the molecule itself; test: SEC

Chain of Lart1 (Q5ZZ30 whole entry, looked up): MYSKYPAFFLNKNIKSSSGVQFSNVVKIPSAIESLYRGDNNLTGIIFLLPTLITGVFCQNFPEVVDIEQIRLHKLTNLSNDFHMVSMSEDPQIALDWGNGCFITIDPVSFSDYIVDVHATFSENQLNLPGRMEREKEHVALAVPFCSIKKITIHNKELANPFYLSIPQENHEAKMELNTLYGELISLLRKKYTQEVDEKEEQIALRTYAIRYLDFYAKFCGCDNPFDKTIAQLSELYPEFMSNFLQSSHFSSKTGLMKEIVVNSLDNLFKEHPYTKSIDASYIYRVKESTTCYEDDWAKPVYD
T3 sequence (A0A0W0ZWS2 1-330): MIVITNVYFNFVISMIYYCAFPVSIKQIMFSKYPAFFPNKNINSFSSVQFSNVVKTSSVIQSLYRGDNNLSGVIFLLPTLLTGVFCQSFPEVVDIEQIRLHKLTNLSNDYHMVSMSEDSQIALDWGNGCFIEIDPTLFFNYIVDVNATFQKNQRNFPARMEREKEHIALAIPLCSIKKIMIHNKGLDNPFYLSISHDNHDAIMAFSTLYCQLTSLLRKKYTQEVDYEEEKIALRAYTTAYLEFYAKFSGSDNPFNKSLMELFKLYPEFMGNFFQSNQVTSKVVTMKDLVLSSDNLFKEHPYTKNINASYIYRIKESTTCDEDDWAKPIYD
T2 sequence (D3HKA9 1-303): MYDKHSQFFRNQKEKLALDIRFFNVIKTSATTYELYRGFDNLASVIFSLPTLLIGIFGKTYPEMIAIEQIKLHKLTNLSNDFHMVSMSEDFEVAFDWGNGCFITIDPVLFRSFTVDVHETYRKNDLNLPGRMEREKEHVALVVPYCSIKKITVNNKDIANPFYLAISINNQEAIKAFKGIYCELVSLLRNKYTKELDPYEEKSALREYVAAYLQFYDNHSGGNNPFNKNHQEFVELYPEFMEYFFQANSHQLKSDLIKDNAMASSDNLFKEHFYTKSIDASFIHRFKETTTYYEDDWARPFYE

## Nc1nc2c(ncn2[C@@H]2O[C@H](COP(=O)(O)OP(=O)(O)OP(=O)(O)O)[C@@H](O)[C@H]2O)c(=O)[nH]1 [GTP]
[1]
  fold stimulation at 1 mM: 2.5 fold

## NC(=O)c1ccc[n+]([C@@H]2O[C@H](COP(=O)(O)OP(=O)(O)OC[C@H]3O[C@@H](n4cnc5c4ncn4ccnc54)[C@H](O)[C@@H]3O)[C@@H](O)[C@H]2O)c1 [etheno-NAD+]
[2]
  ADP-ribosylation of DdGlud2, anti-ethenoadenosine immunoblot: ADP-ribosylated DdGlud2 in assays using both etheno-NAD+ and biotin-NAD+ as substrates
[3]
  ADP-ribosylation of DdGlud2, anti-ethenoadenosine immunoblot: ADP-ribosylated DdGlud2 in assays using both etheno-NAD+ and biotin-NAD+ as substrates

## NC(=O)c1cccnc1 [nicotinamide]
[4]
  inhibition: Lart1 ADP ribosylation was inhibited by free nicotinamide in ≥ twofold excess of NAD+

B1: DdGlud2 (Dictyostelium discoideum) (protein)
chain: T1 sequence (Q54VI3 1-1042)
[5]
  Km: 18.53 (95% CI 10.72, 32.15) mM

B2: Dictyostelium discoideum Glud2 (NAD+-dependent glutamate dehydrogenase of the 115-kDa class) (enzyme, UniProt Q54VI3 1-1042, looked up)
chain: T1 sequence (Q54VI3 1-1042)
notes: also called DdGlud2; Dictyostelium Glud2; not shown: 6X-His, N-terminal, cleaved; SUMO (yeast SMT3), N-terminal, cleaved
[6]
  stoichiometry N: 2
